Entries after “also recorded” stand apart in the source; their conditions may differ.
Tests used:
[1] = test system: BKV; experiment: HDP-CDV given to patients with viral infections, virology data; details: patient
[2] = test system: CMV; experiment: as above; details: patient
[3] = Pharmacokinetic analysis in pediatric and geriatric patients; assay type: in vivo, human
Description: This study population included five children. Pediatric patients received approximate doses of 1, 2, 3, or 4 mg/kg given once or twice weekly. […] Variability in PK parameters for this age group was high with respect to AUC, Cmax, and CL/F. In general, pediatric patients had lower plasma concentrations of HDP-CDV and CDV than adult healthy volunteers or patients on the same dose and schedule.
The study population also included 3 elderly adults. Geriatric patients received approximate doses of 1, 2, or 3 mg/kg given either once or twice weekly. Similar to pediatric patients, the medical condition of geriatric patients varied widely. Variability in PK parameters for this age group was high with respect to AUC, Cmax, and CL/F. In general, geriatric patients had higher plasma concentrations of HDP-CDV and CDV and lower CL/F than those observed in younger healthy volunteers or patients.
High CDV CL/fm values were also observed in children.

[4] = test system: BKV; experiment: In vitro antiviral activity in cell culture; assay type: cell-based
[5] = test system: ADV; experiment: HDP-CDV given to patients with viral infections, virology data
[6] = test system: BKV; experiment: Study HDP-CDV-201: serum creatinine as marker of renal function; details: for Creatinine level and renal function vs placebo: BKU+ at baseline (post-HSCT engraft)
[7] = clinical; details: male, human, plasma, 40 mg
[8] = test system: BKV; experiment: Study HDP-CDV-201: BK viruria and viremia in post-HCT subjects; assay type: in vivo, human
Description: A HDP-CDV-201, a 9-11 week randomized, placebo-controlled, double-blind, dose-escalation clinical study (40 mg weekly [QW], 100 mg QW, 200 mg QW, 200 mg twice-weekly [BIW], and 100 mg BIW) of HDP-CDV for the prevention of BKV infection post-HCT was performed. Treatment was initiated at the time of engraftment and continued until Week 13 post-HCT.
A multicenter, randomized, double-blind, placebo-controlled, dose-escalation study of safety, tolerability, and ability of HDP-CDV to prevent or control AdV, BKV, and EBV infection and associated disorders was conducted. During enrollment of patients in the study, urine samples of candidate patients were routinely screened for BKV. Plasma was collected from patients who tested positive for BKV viruria in urine, and AdV, EBV and BKV level in the plasma was evaluated.
Subjects were tabulated according to treatment group (pooled HDP-CDV versus placebo) and BKV status (viruria positive or negative any time during treatment). Pairwise comparisons were performed using a Fisher's exact test. Data were pooled for HDP-CDV versus placebo groups due to the limited sample size. […] Data from the largest study cohort (HDP-CDV 100 mg BIW) are presented separately in some of the analyses as this dose as been selected for further development of HDP-CDV in Phase 3 trials.

[9] = test system: HSV; experiment: HDP-CDV given to patients with viral infections, virology data; details: patient 2 mo, 4.63 kg, neonatal HSV encephalitis; 4 mg/kg BIW; to below the limit of detection
[10] = test system: AdV; experiment: In vitro antiviral activity in cell culture; assay type: cell-based
[11] = patient 21 mo, 10 kg, 2 mg/kg BIW
[12] = patient, 67 kg, 2 mg/kg BIW, 4 mg/kg BIW
[13] = patient, 70 kg, 2 mg/kg every three days
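Wherever Cmax is given: plasma levels quantified by validated LC-MS/MS, LLOQ 0.1 ng/mL for HDP-CDV and 0.5 ng/mL for CDV, crossover design with 14-day washout between single doses.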

Question: What does the source list for CCCCCCCCCCCCCCCCOCCCOP(=O)(O)COC(CO)Cn1ccc(N)nc1=O (centres unmarked) [HDP-CDV]?
Answer: response of BKV in urine ([1]; 57.9 kg, 2 mg/kg BIW): CMV viremia but no sustained response of; BK viruria during administration ([1]; 69 kg, BKV hemorrhagic cystitis, 2 mg/kg, 1 mg/kg second dose, then 2 mg/kg BIW): ganciclovir. BK viruria decreased during; BKV in urine ([1]; 108 kg, 3 mg/kg first dose, 2 mg/kg BIW thereafter, by a similar amount (almost 2 log10)): rose; decrease in CMV viremia ([2]; 61 kg, GCV res (UL97), 3 mg/kg BIW, first month of dosing): GCV res (UL97). There was a 1.9 log10; CMV viremia 4 days after the third dose ([2]; 63.3 kg, refractory CMV, UL97 and UL54 mutations, 4 mg/kg BIW, from 9200 copies/mL): first day of dosing to 1000 copies/mL 4; CMV after dosing interruption ([2]; 63.3 kg, refractory CMV, 4 mg/kg BIW): interrupted resulting in virologic rebound.; CMV suppression during therapy ([2]; 69 kg, 2 mg/kg, 1 mg/kg second dose, then 2 mg/kg BIW, after discontinuation of ganciclovir): CMV suppression continued during HDP-; CMV viremia during therapy ([2]; 72.8 kg, post lung transplant CMV, 3 mg/kg BIW): There was no change in CMV viremia; CDV CL/fm values ([3]; children): High; CL/F vs younger healthy volunteers or patients ([3]; geriatric patients aged 66-68 years): lower; plasma concentrations of HDP-CDV and CDV vs younger healthy volunteers or patients ([3]; geriatric patients aged 66-68 years, approx. 1-3 mg/kg once or twice weekly): higher; CL/F values vs older subjects ([3]; patients <20 years of age): higher; EC50 [4]: 130 nM; ADV in stool on therapy ([5]; patient 9 months, 6.58 kg, disseminated ADV, 3 mg/kg BIW): decreased by a similar amount.; stool ADV decline ([5]; patient 16 mo, 10.4 kg, 4 mg/kg BIW, 3 weeks): ADV declined approximately 1 log10 over; Plasma ADV after 3 weeks of therapy ([5]; patient 16 mo, 10.4 kg, 4 mg/kg BIW, from 809 c/ml): declined from 809 c/ml to undetectable; plasma ADV viremia after discontinuation (rebound) [5, 11]: CDV when it rebounded to 100 copies/ml.; response in stool viral load [5, 11]: load (<10-fold).; plasma ADV viremia on treatment ([5]; patient 21 mo, 10 kg, 2 mg/kg BIW, baseline 100 copies/mL): became undetectable and stayed; decrease in plasma ADV ([5]; patient, 14.1 kg, 4 mg/kg BIW): ADV2. A ~2 log10 decrease in plasma; ADV in blood 4 days after one dose ([5]; patient, 19.1 kg, disseminated ADV, 60 mg BIW, from 51,000 c/mL): 100 c/mL in 4 days after one dose.; Adenovirus decline in plasma ([5]; patient, 65 kg, 2 mg/kg BIW, to the limit of detection): ADV 5 (plasma). Adenovirus declined 2.6 log10; ADV viruria initial decline [5, 12]: respond well initially with a 2.4 log10; ADV viruria rebound, distance from baseline [5, 12]: decline only to rebound to within 0.7 log10; ADV plasma viremia decline ([5]; patient, 67 kg, 2 mg/kg BIW, 4 mg/kg BIW, from 5.1 log10 to the limit of detection): declined 3.1 logs from 5.1 log10 to the limit; ADV viremia approximately two weeks after D/C [5, 13]: HDP-CDV, ADV viremia rebounded.; Colon biopsy for ADV after therapy [5, 13]: negative; ADV viremia decrease ([5]; patient, 70 kg, 2 mg/kg every three days, after 3 weeks): > 3 log10; ADV viremia after 3 weeks ([5]; patient, 70 kg, 2 mg/kg every three days, from 430,000 copies/mL): copies/mL to undetectable after 3 weeks; stool viral load ([5]; patient, 81 kg, ADV pneumonia, 2 mg/kg BIW): modest decline in stool viral load.; Plasma ADV decline ([5]; patient, 81 kg, ADV pneumonia, 2 mg/kg BIW, 10 days/4 doses): ADV 12. Plasma ADV declined 2.4 log10; ADV viremia decrease ([5]; patient, 108 kg, 3 mg/kg first dose, 2 mg/kg BIW thereafter, after approximately 2-3 weeks): ~2 log10; ADV viremia after first two weeks ([5]; patient, 4 mg/kg BIW, 3 doses, from 1.5 million): ADV viremia from 1.5 million to 98,000 c/ml; decrease in ADV viremia ([5]; patient, 4 mg/kg BIW, first two weeks, 3 doses): This patient had a 1.2 log10 decrease in; rates of creatinine elevations or creatinine or heme+ urine, HDP-CDV vs placebo ([6]; 105 subjects consistently BK negative): numerically similar; creatinine elevations >120 microM and =>25% increase over baseline ([6]; BK negative throughout (7/78), placebo 7.4%): 9.0%; creatinine elevations (>120 last and >25% increase from baseline) OR 1+ heme, confirmed, new onset ([6]; BK negative throughout (11/78), placebo 11.1%): 14.1%; end of treatment creatinine elevations >120 microM and =>25% over baseline ([6]; BK positive during treatment (7/93), placebo 18.75%): 7.5%; creatinine elevations (>120 last and >25% increase from baseline) OR 1+ heme, confirmed, new onset ([6]; BK positive during treatment (11/93), placebo 37.5%): 11.8%; difference in frequency between treatments, creatinine elevations or new onset heme+ urinalyses ([6]; BK-positive subjects): 3.2 fold; Creatinine level and renal function vs placebo ([6]; FIG. 2): prevented increase in Creatinine level and worsening of renal function; Creatinine level and renal function vs placebo ([6]; FIG. 2, listed as HDP-cidofovir): reduces renal impairment; developed renal impairment ([6]; BKU+ subjects (10/77), placebo 29%): 13%; end organ damage vs placebo ([6]; BKU− at baseline, FIG. 2): did not impact the end organ damage; renal impairment ([6]; BKU− subjects (6/94), placebo 6%): 6%; efficacy of twice weekly dosing ([6]; Study HDP-CDV-201 retrospective analysis): equally or more effective; reduction of the incidence of renal dysfunction (creatinine elevations) vs placebo ([6]; subjects BK viruric during the treatment period): 2.5 fold; AUC(0-inf) ([7]; oral): 476 ng·h/mL; AUC(0-t) ([7]; oral): 457 ng·h/mL; Cmax ([7]; oral): 70.5 ng/mL; AUC(0-inf) ([7]; po): 574 ng·h/mL; AUC(0-t) ([7]; po): 549 ng·h/mL; Cmax ([7]; po): 77.7 ng/mL; Vd/F ([7]; po): 831 L; half-life ([7]; po): 8.06 h; antiviral effect ([8]; 40 mg QW dose): has not been shown to have antiviral activity; also recorded: no antiviral effect; BKV viral load and risk or incidence of end organ damage ([8]; BKU+ patients, FIG. 3): effective in reducing BKV viral load and the risk or incidence of end organ damage; >10,000 confirmed, new onset (viremia) ([8]; Cohort 4A 100 mg BIW): 0; Viruria >1.0E+10 but only at posttreatment week ([8]; Cohort 4A 100 mg BIW (1/22)): (4.5%); Viremia sustained, but no viremia at baseline ([8]; Cohort 4A 100 mg BIW (3/22)): (13.6%); Viremia >1000 copies/mL confirmed ([8]; Cohort 4A 100 mg BIW (4/22)): (18.2%); Viremia sustained (at least 2 consecutive values positive) ([8]; Cohort 4A 100 mg BIW (5/22)): (22.7%); Viremia at any time during treatment ([8]; Cohort 4A 100 mg BIW (6/22)): (27.3%); Viruria >1.0E+10 at any time during treatment ([8]; Cohort 4A 100 mg BIW, BKV positive urine at baseline (4/22)): (18.2%); BK viremia ([8]; Cohort 4a (100 mg BIW), 5/22): 23%; Viruria >1.0E+10 but only at posttreatment week ([8]; Pooled HDP-CDV cohorts (4/77)): (5.2%); >10,000 confirmed, new onset (viremia) ([8]; Pooled HDP-CDV cohorts (5/77)): (6.5%); Viremia sustained, but no viremia at baseline ([8]; Pooled HDP-CDV cohorts (23/77)): (29.9%); Viremia >1000 copies/mL confirmed ([8]; Pooled HDP-CDV cohorts (31/77)): (26%); Viremia sustained (at least 2 consecutive values positive) ([8]; Pooled HDP-CDV cohorts (32/77)): (41.6%); Viremia at any time during treatment ([8]; Pooled HDP-CDV cohorts (40/77)): (47%); Viruria >1.0E+10 at any time during treatment ([8]; Pooled HDP-CDV cohorts, BKV positive urine at baseline (26/77)): (33.8%); subjects who developed viremia >10,000 copies/mL ([8]; cohort 1 (40 mg QW)): 1; BK viremia ([8]; cohort 1 (40 mg QW), 5/8): 62%; subjects who developed viremia >10,000 copies/mL ([8]; cohort 2 (100 mg QW)): 1; subjects who developed viremia >10,000 copies/mL ([8]; cohort 3 (200 mg QW)): 3; subjects who developed viremia >10,000 copies/mL ([8]; cohort 4 (200 mg BIW)): 3; subjects who developed viremia >10,000 copies/mL ([8]; cohort 4a (100 mg BIW)): 0; subjects with high levels of BK viruria ([8]; negative for BK viruria at baseline, Cohort 1 (40 mg QW)): 0 subject; subjects with high levels of BK viruria ([8]; negative for BK viruria at baseline, Cohort 2 (100 mg QW)): 1 subject; subjects with high levels of BK viruria ([8]; negative for BK viruria at baseline, Cohort 3 (200 mg QW)): 2 subject; subjects with high levels of BK viruria ([8]; negative for BK viruria at baseline, Cohort 4 (200 mg BIW)): 0 subject; subjects with high levels of BK viruria ([8]; negative for BK viruria at baseline, Cohort 4a (100 mg BIW)): 0 subject; subjects with viremia ([8]; negative for BK viruria at baseline, pooled HDP-CDV): one; viral load (maximum BKV viruria) ([8]; patients (67%) who did not develop end organ disease, FIG. 3): 2.0×10^8; viral load (maximum BKV viruria) ([8]; patients who developed end organ disease after treatment (33%), FIG. 3): 3.2×10^8; viral load compared to patients who received placebo ([8]; patients who developed end organ disease after treatment, FIG. 3): significantly lower viral load; sustained BK viruria (at least 4 weeks with BK positive urine measurements) ([8]; subjects negative for BK viruria at baseline (9/73), placebo 21%): 12%; confirmed new onset BK viruria during treatment ([8]; subjects negative for BK viruria at baseline (10/73), placebo 25%): 14%; measurable BK viruria on at least one occasion ([8]; subjects negative for BK viruria at baseline (16/73), placebo 29%): 22%; HSV in the CSF decrease [9]: > 1.8 log10 copies/mL to below the limit of; EC50 [10]: 20 nM
